Earlier results on two compounds are cited in patent publication US20050009793A1, “Treatment of liver disease with active vitamin D compounds” (Novacea, Inc., priority 2002, published 2005).

For the data set the following is noted: in vivo.

As for `C=C1/C(=C\C=C2/CCC[C@]3(C)C([C@H](C)CC#CC(C)(C)O)=CC[C@@H]23)C[C@@H](O)C[C@@H]1O` [Ro23-7553], the “Hypercalcemic effect compared to calcitriol” value was “reduced hypercalcemic effect”.
`C=C1/C(=C/C=C2\CCC[C@]3(C)C([C@H](C)CC#CC(O)(C(F)(F)F)C(F)(F)F)=CC[C@@H]23)C[C@@H](O)C[C@@H]1O` [Ro24-5531]: the “Hypercalcemic effect compared to calcitriol” value is “reduced hypercalcemic effect”.
